Measurements as given in patent publication US12441689B2 (EpiVario, Inc., priority 2019, dated 2025).

Molecular target: human ACSS2 protein (Homo sapiens (Human), UniProt Q9NR19)
Assay: ACSS2 Cell-Free Activity Assay (Cell-Free IC50)
Conditions: 10 nM human ACSS2 protein, 90 minutes at 37 C, pyrophosphatase-coupled, Biomol Green absorbance at 620 nm; read-out: ACSS2 Biochemical IC50
Excerpt: ACSS2 Cell-Free Activity Assay (Cell-Free IC50)

Sequence of human ACSS2 protein (Q9NR19 whole entry): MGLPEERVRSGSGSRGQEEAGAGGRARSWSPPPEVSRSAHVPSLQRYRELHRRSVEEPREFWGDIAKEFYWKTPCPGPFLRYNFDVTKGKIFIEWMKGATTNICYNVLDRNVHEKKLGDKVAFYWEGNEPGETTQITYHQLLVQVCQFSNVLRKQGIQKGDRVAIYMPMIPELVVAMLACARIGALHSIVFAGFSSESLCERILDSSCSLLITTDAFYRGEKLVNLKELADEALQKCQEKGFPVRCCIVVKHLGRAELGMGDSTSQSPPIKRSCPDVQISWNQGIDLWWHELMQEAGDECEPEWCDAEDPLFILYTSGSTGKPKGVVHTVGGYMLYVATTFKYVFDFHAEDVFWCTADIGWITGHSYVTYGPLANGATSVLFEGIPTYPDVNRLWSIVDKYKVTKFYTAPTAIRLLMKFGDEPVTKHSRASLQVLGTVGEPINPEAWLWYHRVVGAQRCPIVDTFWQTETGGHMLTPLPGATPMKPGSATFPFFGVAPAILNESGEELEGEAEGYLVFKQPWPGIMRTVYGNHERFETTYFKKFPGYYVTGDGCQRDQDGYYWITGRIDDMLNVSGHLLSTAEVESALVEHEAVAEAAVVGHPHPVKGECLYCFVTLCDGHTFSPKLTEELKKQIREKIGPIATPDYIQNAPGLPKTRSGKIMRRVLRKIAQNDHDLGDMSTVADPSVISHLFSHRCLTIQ

| SMILES | IC50 |
| --- | --- |
| CCC(F)(F)c1cccc(NC(=O)c2cc(-c3ccc(OC(F)F)c(-c4ccccc4)c3)[nH]c2C)c1 [Compound 217, 5-[4-(difluoromethoxy)-3-phenyl-phenyl]-N-[3-(1,1-difluoropropyl)phenyl]-2-methyl-1H-pyrrole-3-carboxamide] | > 100 nM |
| COc1c(CC2CCCCC2)cc(N2N=C(C)C(C(=O)Nc3cccc(C(C)(F)F)c3)C2=O)cc1-c1ccccc1 (stereo not drawn) [Compound 129, 1-(5-(cyclohexylmethyl)-6-methoxy-[1,1′-biphenyl]-3-yl)-N-(3-(1,1-difluoroethyl)phenyl)-3-methyl-5-oxo-4,5-dihydro-1H-pyrazole-4-carboxamide] | 1 to 100 nM |
| COc1ccc(-c2ncc(C)c(C(=O)Nc3cccc(C(C)(F)F)c3)n2)cc1 [Compound 247, N-(3-(1,1-difluoroethyl)phenyl)-2-(4-methoxyphenyl)-5-methylpyrimidine-4-carboxamide] | 1 to 100 nM |
| CCC(F)(F)c1cccc(NC(=O)c2nc(-c3ccc(OC(F)F)cc3)[nH]c2C)c1 [Compound 215, 2-(4-(difluoromethoxy)phenyl)-N-(3-(1,1-difluoropropyl)phenyl)-5-methyl-1H-imidazole-4-carboxamide] | > 100 nM |
| Cc1nn(-c2ccc(OC(F)F)cc2)c(F)c1C(=O)Nc1cccc(C(C)(F)F)c1 [Compound 200, N-(3-(1,1-difluoroethyl)phenyl)-1-(4-(difluoromethoxy)phenyl)-5-fluoro-3-methyl-1H-pyrazole-4-carboxamide] | > 100 nM |
| CCC(F)(F)c1cccc(NC(=O)c2c(C)[nH]c(-c3ccc(OC)c(-c4ncccc4C)c3)[n+]2[O-])c1 [Compound 249, 4-((3-(1,1-difluoropropyl)phenyl)carbamoyl)-2-(4-methoxy-3-(3-methylpyridin-2-yl)phenyl)-5-methyl-1H-imidazole 3-oxide] | < 1 nM |
| CCC(F)(F)c1cccc(NC(=O)c2ncc(-c3ccc(OC(F)F)c(-c4ccccc4)c3)nc2C)c1 [Compound 134, 5-[4-(difluoromethoxy)-3-phenyl-phenyl]-N-[3-(1,1-difluoropropyl)phenyl]-3-methyl-pyrazine-2-carboxamide] | > 100 nM |
| COc1c(Cc2ccc(Cl)cc2)cc(N2N=C(C)C(C(=O)Nc3cccc(C(C)(F)F)c3)C2=O)cc1-c1ccccc1 (stereo not drawn) [Compound 224, 1-(5-(4-chlorobenzyl)-6-methoxy-[1,1’-biphenyl]-3-yl)-N-(3-(1,1-difluoroethyl)phenyl)-3-methyl-5-oxo-4,5-dihydro-1H-pyrazole-4-carboxamide] | 1 to 100 nM |
| CCC(F)(F)c1cccc(NC(=O)c2cc(-c3ccc(OC(F)F)c(-c4ccccc4)n3)[nH]c2C)c1 [Compound 223, 5-(5-(difluoromethoxy)-6-phenylpyridin-2-yl)-N-(3-(1,1-difluoropropyl)phenyl)-2-methyl-1H-pyrrole-3-carboxamide] | > 100 nM |
| COc1c(Cc2ccc(O)cc2)cc(N2N=C(C)C(C(=O)Nc3cccc(C(C)(F)F)c3)C2=O)cc1-c1ccccc1 (stereo not drawn) [Compound 228, N-(3-(1,1-difluoroethyl)phenyl)-1-(5-(4-hydroxybenzyl)-6-methoxy-[1,1′-biphenyl]-3-yl)-3-methyl-5-oxo-4,5-dihydro-1H-pyrazole-4-carboxamide] | 1 to 100 nM |
| Cc1nn(-c2ccc(OC(F)F)cc2)c(OC(=O)N2CCN(C(C)(C)CO)CC2)c1C(=O)Nc1cccc(C(C)(F)F)c1 [Compound 185, 4-((3-(1,1-difluoroethyl)phenyl)carbamoyl)-1-(4-(difluoromethoxy)phenyl)-3-methyl-1H-pyrazol-5-yl 4-(1-hydroxy-2-methylpropan-2-yl)piperazine-1-carboxylate] | > 100 nM |
| CNc1c(C(=O)Nc2cccc(C(C)(F)F)c2)c(C)nn1-c1ccc(OC(F)F)cc1 [Compound 162, N-(3-(1,1-difluoroethyl)phenyl)-1-(4-(difluoromethoxy)phenyl)-3-methyl-5-(methylamino)-1H-pyrazole-4-carboxamide] | 1 to 100 nM |
| Cc1nn(-c2ccc(OC(F)F)cc2)cc1C(=O)Nc1cccc(C(C)(F)F)c1 [Compound 196, N-(3-(1,1-difluoroethyl)phenyl)-1-(4-(difluoromethoxy)phenyl)-3-methyl-1H-pyrazole-4-carboxamide] | 1 to 100 nM |
| Cc1nc(-c2ccc(OC(F)F)cc2)oc1C(=O)Nc1cccc(C(C)(F)F)c1 [Compound 141, N-(3-(1,1-difluoroethyl)phenyl)-2-(4-(difluoromethoxy)phenyl)-4-methyloxazole-5-carboxamide] | > 100 nM |
| Cc1nn(-c2ccc(OC(F)F)c(-c3ccccc3)c2)cc1C(=O)Nc1cccc(C(C)(F)F)c1 [Compound 186, N-(3-(1,1-difluoroethyl)phenyl)-1-(6-(difluoromethoxy)-[1,1’-biphenyl]-3-yl)-3-methyl-1H-pyrazole-4-carboxamide] | 1 to 100 nM |
| CCC(F)(F)c1cccc(NC(=O)c2nc(C)c(-c3ccc(OC(F)F)c(-c4ccccc4)c3)nc2C)c1 [Compound 103, 5-(6-(difluoromethoxy)-[1,1′-biphenyl]-3-yl)-N-(3-(1,1-difluoropropyl)phenyl)-3,6-dimethylpyrazine-2-carboxamide] | > 100 nM |
| CCC(F)(F)c1cccc(NC(=O)c2cnc(-c3ccc(OC(F)F)c(-c4ccccc4)c3)nc2C)c1 [Compound 138, 2-[4-(difluoromethoxy)-3-phenyl-phenyl]-N-[3-(1,1-difluoropropyl)phenyl]-4-methyl-pyrimidine-5-carboxamide] | > 100 nM |

| SMILES | IC50 |
| --- | --- |
| CCC(F)(F)c1cccc(NC(=O)c2cc(-c3ccc(OC(F)F)cc3)[nH]c2C)c1 [Compound 216, 5-[4-(difluoromethoxy)phenyl]-N-[3-(1,1-difluoropropyl)phenyl]-2-methyl-1H-pyrrole-3-carboxamide] | > 100 nM |
| CCC(F)(F)c1cccc(NC(=O)c2nc(-c3ccc(OC(F)F)c(-c4ccccn4)c3)oc2C)c1 [Compound 259, 2-(4-(difluoromethoxy)-3-(pyridin-2-yl)phenyl)-N-(3-(1,1-difluoropropyl)phenyl)-5-methyloxazole-4-carboxamide] | > 100 nM |
| CCC(F)(F)c1cccc(NC(=O)c2c(C)[nH]c3ccc(OC)cc3c2=O)c1 [Compound 272, N-(3-(1,1-difluoropropyl)phenyl)-6-methoxy-2-methyl-4-oxo-1,4-dihydroquinoline-3-carboxamide] | 1 to 100 nM |
| Cc1nn(-c2ccc(OC(F)F)cc2)nc1C(=O)Nc1cccc(C(C)(F)F)c1 [Compound 164, N-(3-(1,1-difluoroethyl)phenyl)-2-(4-(difluoromethoxy)phenyl)-5-methyl-2H-1,2,3-triazole-4-carboxamide] | > 100 nM |
| CC1=NN(c2ccc(OC(F)F)cc2)C(=O)C1C(=O)Nc1cccc(C(F)(F)C2CCC2)c1 (stereo not drawn) [Compound 101, N-(3-(cyclobutyldifluoromethyl)phenyl)-1-(4-(difluoromethoxy)phenyl)-3-methyl-5-oxo-4,5-dihydro-1H-pyrazole-4-carboxamide] | 1 to 100 nM |
| CCC(F)(F)c1cccc(NC(=O)c2n[nH]c(-c3ccc(OC)cc3)c2Br)c1 [Compound 233] | > 100 nM |
| CCC(F)(F)c1cccc(NC(=O)c2c(C)[nH]c3cc(OC)ccc3c2=O)c1 [Compound 273, N-(3-(1,1-difluoropropyl)phenyl)-7-methoxy-2-methyl-4-oxo-1,4-dihydroquinoline-3-carboxamide] | 1 to 100 nM |
| Cc1nn(-c2ccc(OC(F)F)c(-c3cccnc3)c2)cc1C(=O)Nc1cccc(C(C)(F)F)c1 [Compound 182, N-(3-(1,1-difluoroethyl)phenyl)-1-(4-(difluoromethoxy)-3-(pyridin-3-yl)phenyl)-3-methyl-1H-pyrazole-4-carboxamide] | 1 to 100 nM |
| CCC(F)(F)c1cccc(NC(=O)c2nc(-c3ccc(OC(F)F)c(-c4ccccc4)c3)[nH]c2C)c1 [Compound 218, 2-(6-(difluoromethoxy)-[1,1′-biphenyl]-3-yl)-N-(3-(1,1-difluoropropyl)phenyl)-5-methyl-1 H-imidazole-4-carboxamide] | > 100 nM |
| CCC(F)(F)c1cccc(NC(=O)c2c(C)nn(-c3ccc(OC)cc3)c2C(C)=O)c1 [Compound 230, 5-acetyl-N-(3-(1,1-difluoropropyl)phenyl)-1-(4-methoxyphenyl)-3-methyl-1H-pyrazole-4-carboxamide] | > 100 nM |
| Cc1nn(-c2ccc(OC(F)F)cc2)c(C(C)C)c1C(=O)Nc1cccc(C(C)(F)F)c1 [Compound 146, N-[3-(1,1-difluoroethyl)phenyl]-1-[4-(difluoromethoxy)phenyl]-5-isopropyl-3-methyl-pyrazole-4-carboxamide] | > 100 nM |
| CCc1nn(-c2ccc(OC(F)F)cc2)c(C)c1C(=O)Nc1cccc(C(C)(F)F)c1 [Compound 155, N-(3-(1,1-difluoroethyl)phenyl)-1-(4-(difluoromethoxy)phenyl)-3-ethyl-5-methyl-1H-pyrazole-4-carboxamide] | > 100 nM |
| CC1=NN(c2ccc(OC(F)F)cc2)C(=O)C1(C)C(=O)Nc1cc(C)cc(Cl)c1 (stereo not drawn) [Compound 157, N-(3-chloro-5-methyl-phenyl)-1-[4-(difluoromethoxy)phenyl]-3,4-dimethyl-5-oxo-pyrazole-4-carboxamide] | > 100 nM |
| Cc1nn(-c2ccc(OC(F)F)c(-c3cccnc3)c2)c(OC(=O)N2CCN(C(C)(C)CO)CC2)c1C(=O)Nc1cccc(C(C)(F)F)c1 [Compound 183, 4-((3-(1,1-difluoroethyl)phenyl)carbamoyl)-1-(4-(difluoromethoxy)-3-(pyridin-3-yl)phenyl)-3-methyl-1H-pyrazol-5-yl 4-(1-hydroxy-2-methylpropan-2-yl)piperazine-1-carboxylate] | > 100 nM |
| CC1=NN(c2ccc(OC(F)F)c(-c3ccncc3)c2)C(=O)C1(F)C(=O)Nc1cccc(C(C)(F)F)c1 (stereo not drawn) [Compound 204, N-(3-(1,1-difluoroethyl)phenyl)-1-(4-(difluoromethoxy)-3-(pyridin-4-yl)phenyl)-4-fluoro-3-methyl-5-oxo-4,5-dihydro-1H-pyrazole-4-carboxamide] | < 1 nM |
| COc1c(Cc2ccccc2)cc(N2N=C(C)C(C(=O)Nc3cccc(C(C)(F)F)c3)C2=O)cc1-c1ccccc1 (stereo not drawn) [Compound 122, 1-(5-benzyl-6-methoxy-[1,1′-biphenyl]-3-yl)-N-(3-(1,1-difluoroethyl)phenyl)-3-methyl-5-oxo-4,5-dihydro-1H-pyrazole-4-carboxamide] | < 1 nM |
